This note sets out measurements from patent US10188625B2, “Combination of a retinoid and a diol and polyunsaturated fatty acid ester” (PIERRE FABRE DERMO-COSMETIQUE, priority 2015, dated 2019).

Assay [1] has as its system retentional lesions (open and closed comedones). Briefly: Clinical study (open) of creams: count of retentional lesions in subjects with mild to moderate acne. It counts as in vivo, human. Conditions: topical cream (retinaldehyde 0.1% and/or Compound A 0.6%). The source says:
The clinical trial was an open study involving 60 subjects (men and women) between 12 and 35 years of age with mild to moderate acne for purposes of testing the tolerance and efficacy of Composition 2.
All of the participants initially had more than 10 retentional lesions (open and closed comedones) on their skin (excluding the nasal pyramid).
The cream was applied to the face (clean skin) in the evening by means of gentle massage.
The lesions were counted at T0 (before the first treatment), T3 weeks and T6 weeks according to the method described by Lucky (Lucky AW et al. (1996)).
The clinical trial was an open study involving 29 subjects (men and women) between 12 and 35 years of age with mild to moderate acne for purposes of testing the tolerance and efficacy of cream having the following composition:
All of the participants initially had more than 10 retentional lesions (open and closed comedones) on their skin.
The lesions were counted at T0, T3 weeks and T6 weeks.
The clinical trial was an open study involving 46 subjects (men and women) between 12 and 35 years of age with mild to moderate acne for purposes of testing the tolerance and efficacy of cream having the following composition:
The cream was applied to the face (clean skin) twice per day (morning and evening) by means of gentle massage.

Assay [2] deals with genes responsible for differentiation in keratinocytes (human skin explants). Nature of the assay: Microarray analysis of differentiation genes in human skin explants treated topically with retinaldehyde. It counts as cell-based. How it is done:
In these experiments, retinaldehyde was applied topically for 24 hours at a concentration of 0.025% dissolved in Myritol on human skin explants (of 3 donors) kept alive in culture medium (Dulbecco's Modified Eagle Medium (DMEM)+10% fetal bovine serum (FBS)). Myritol alone was used as the control. At the conclusion of this treatment, the RNA is extracted, inspected for quality, and analyzed by means of a microarray (Agilent Technology). They are averaged fold-change values below 1.8 (p<0.05). A fold change of −2.00 corresponds to a decrease in gene expression of about 50%.

Assay [3] concerns keratinocyte proliferation. Briefly: Keratinocyte proliferation. The format is cell-based.
The subject of assay [4] is genes responsible for differentiation in keratinocytes (human skin explants). Nature of the assay: Microarray analysis of differentiation genes in human skin explants treated topically with retinaldehyde. It counts as cell-based. The note with it: 0.025% in Myritol, topical 24 hours.
[5] abbreviates: human skin explants (3 donors), control Myritol alone, p 0.115.

For `CC1=C(/C=C/C(C)=C/C=C/C(C)=C/C=O)C(C)(C)CCC1` [Retinaldehyde, retinaldehyde], the “Change in mean number of retentional lesions” value (“Change in mean number” below) in assay [1] (T = 3 weeks) is listed as −23%. The “Change in mean number” value in assay [1] (T = 6 weeks) is given as −37%. Also, in assay [2] (0.025% in Myritol, topical 24 hours, human skin explants (3 donors), control Myritol alone, p 0.009), the “Fold change, KRTCAP3 (keratinocyte associated protein 3)” value was −1.81. For the same compound, the “Fold change, KRT6A (keratin 6A)” value in assay [2] (0.025% in Myritol, topical 24 hours, human skin explants (3 donors), control Myritol alone, p 0.012) is listed as −2.83. Moreover, the “Fold change, KRT6C (keratin 6C)” value in assay [2] (0.025% in Myritol, topical 24 hours, human skin explants (3 donors), control Myritol alone, p 0.015) is −3.61. For the same compound, the “Fold change, FLJ46111 (keratin 8 pseudogene)” value in assay [2] (0.025% in Myritol, topical 24 hours, human skin explants (3 donors), control Myritol alone, p 0.016) is −2.71. The “Fold change, EPPK1 (epiplakin 1)” value in assay [2] (0.025% in Myritol, topical 24 hours, human skin explants (3 donors), control Myritol alone, p 0.042) was −1.60. Besides, in assay [2] (conclusion from gene modulation in human skin explants), the “effect on keratinocyte differentiation” value is “inhibits keratinocyte differentiation”. Besides, the “effect on cell (keratinocyte) proliferation” value in assay [3] was “does not increase cell proliferation”. Also, in assay [4] (human skin explants), the “number of keratins inhibited” value came out at 11 and the “number of targets of terminal keratinocyte differentiation inhibited” value worked out at 13. Also, the “Fold change, CNFN (cornifelin)” value in assay [4] (human skin explants (3 donors), control Myritol alone, p 0.004) is recorded as −1.56. Besides, the “Fold change, KRT16 (keratin 16)” value in assay [4] (human skin explants (3 donors), control Myritol alone, p 0.027) was −2.63. The “Fold change, CDSN (corneodesmosin)” value in assay [4] (human skin explants (3 donors), control Myritol alone, p 0.052) is listed as −1.49. For the same compound, the “Fold change, DSG3 (desmoglein 3)” value in assay [4] (human skin explants (3 donors), control Myritol alone, p 0.056) is given as −1.77. Besides, the “Fold change, DSC1 (desmocollin 1)” value in assay [4] (human skin explants (3 donors), control Myritol alone, p 0.058) is −1.70. For the same compound, in assay [4] (human skin explants (3 donors), control Myritol alone, p 0.070), the “Fold change, DSG1 (desmoglein 1)” value was −1.68. For the same compound, the “Fold change, EVPL (envoplakin)” value in assay [4] (human skin explants (3 donors), control Myritol alone, p 0.072) is −1.41. In addition, in assay [4] (human skin explants (3 donors), control Myritol alone, p 0.091), the “Fold change, UPK2 (uroplakin 2)” value was −1.53. Further, in assay [4] (human skin explants (3 donors), control Myritol alone, p 0.095), the “Fold change, DSC3 (desmocollin 3)” value is listed as −1.55. For the same compound, in assay [4] (setting [5]), the “Fold change, KRTAP11-1 (keratin associated protein 11-1)” value was −4.68 and the “Fold change, LCE3A (late cornified envelope 3A)” value was −2.73. In assay [4] (human skin explants (3 donors), control Myritol alone, p 0.271), the “Fold change, LCE3D (late cornified envelope 3D)” value is recorded as −1.90. The “Fold change, KRTAP3-1 (keratin associated protein 3-1)” value in assay [4] (human skin explants (3 donors), control Myritol alone, p 0.288) is listed as −2.09. Also, the “Fold change, KRT6B (keratin 6B)” value in assay [4] (human skin explants (3 donors), control Myritol alone, p 0.325) is −1.83. For the same compound, the “Fold change, KRT27 (keratin 27)” value in assay [4] (human skin explants (3 donors), control Myritol alone, p 0.372) is given as −2.66. Besides, in assay [4] (human skin explants (3 donors), control Myritol alone, p 0.472), the “Fold change, KRT86 (keratin 86)” value is listed as −2.19.
Regarding `CC/C=C\C/C=C\C/C=C\CCCCCCCC(=O)OCC(O)CCCCCC` (centres unmarked) [Compound A], the “Change in mean number” value in assay [1] (T = 3 weeks) is −6%; in assay [1] (T = 6 weeks), −19%.
